Consider 1 compound from patent US8178136B2, “Composition based on vegetal extracts of Ajuga reptans for preventing hair loss, stimulating the growth of hair, regulating the production of sebum” (Giuliani S.p.A., priority 2005, dated 2012).

Values joined by “and” are separate entries in the source; they are usually repeats but may differ in a detail not shown here. Identical values can stand only once.

The assay concerns 5α-reductase. Kind of assay: in-vivo inhibitory activity of 5α-reductase: haematic levels of DHT in rats after oral administration. Particulars: for Seric concentrations of DHT: individual rat values; for Seric concentrations of DHT, average: basal average 335.7. Set-up: species or system rat. The protocol:
A study was carried out to determine in-vivo the inhibitory activity of 5α-reductase on the part of a total extract deriving from a cellular culture of Ajuga reptans.
The study was effected by determining the haematic levels of DHT (5α-dihydrotestosterone) on rats after administration of the extract being studied.
For the in-vivo study of the inhibition of 5α-reductase, Sprague-Dawley adult male rats were used (Charles River Italia) having a body weight of 200-250 g.
The animals were stalled under standard conditions: at a temperature of 22/23° C., with 65% relative humidity, exposing them to illumination cycles of 12 h light/12 h darkness.
A standard diet in the form of pellets (standard diet, Charles River) was administered to the rats, with water ad libitum
The experimentation was carried out according to protocols authorized by the Committee for the Care and Use of Animals of the Università degli Studi of Milan. Tests were carried out on the rats, effected from the retro-orbital plexus, immediately before the pharmalogical treatment (t0) and subsequently at a distance of 3, 6 and 8 hours after administration.
The administration of the substances being studied was effected orally.
In correspondence with each test on the animals treated, tests were also effected on non-treated animals to determine the basal analyte level. Both testosterone and DHT are in fact characterized by a significant circadian fluctuation.
The plasma obtained from the whole blood treated with EDTA after centrifugation was preserved at −20° C. until dosage.
The plasmatic concentrations of DHT (dihydrotestosterone) were determined with a commercial kit (DSL, Chematil, Angri, SA) after extraction of the samples.
All the samples of an experimental set were dosed together to reduce the inter-analytic variability.

On to `CC(C)(C)NC(=O)[C@H]1CC[C@H]2[C@@H]3CC[C@H]4NC(=O)C=C[C@]4(C)[C@H]3CC[C@]12C` [Finasteride], for which the “Seric concentrations of DHT” value reads like this: (Finasteride 1 mg oral, 3 hrs) 569.6 pg/mL and 404.6 pg/mL and 530.0 pg/mL and 298.1 pg/mL and 505.3 pg/mL and 300.0 pg/mL; (Finasteride 1 mg oral, 6 hrs) 592.1 pg/mL and 148.5 pg/mL and 420.1 pg/mL and 404.1 pg/mL and 565.0 pg/mL and 379.6 pg/mL; (Finasteride 1 mg oral, 8 hrs) 530.1 pg/mL and 173.1 pg/mL and 110.0 pg/mL and 706.7 pg/mL and 140.1 pg/mL and 503.9 pg/mL; (Finasteride 5 mg oral, 3 hrs) 641.0 pg/mL and 924.2 pg/mL and 569.4 pg/mL and 217.1 pg/mL and 618.6 pg/mL and 151.2 pg/mL; (Finasteride 5 mg oral, 6 hrs) 49.7 pg/mL and 128.3 pg/mL and 176.9 pg/mL and 81.2 pg/mL and 205.2 pg/mL and 103.6 pg/mL and 54.4 pg/mL and 60.7 pg/mL; (Finasteride 5 mg oral, 8 hrs) 576.6 pg/mL and 250.9 pg/mL and 300.1 pg/mL and 201.6 pg/mL and 108.8 pg/mL and 745.4 pg/mL. Moreover, the “Seric concentrations of DHT, average” value (Finasteride 1 mg oral, 3 hrs, n=6) was 434.6 pg/mL; the “Seric concentrations of DHT, average” value (Finasteride 1 mg oral, 6 hrs, n=6) is 418.2 pg/mL; the “Seric concentrations of DHT, average” value (Finasteride 1 mg oral, 8 hrs, n=6) turned out to be 360.6 pg/mL; the “Seric concentrations of DHT, average” value (Finasteride 5 mg oral, 3 hrs, n=6) was found to be 520.2 pg/mL; the “Seric concentrations of DHT, average” value (Finasteride 5 mg oral, 6 hrs, n=8) came out at 107.5 pg/mL; the “Seric concentrations of DHT, average” value (Finasteride 5 mg oral, 8 hrs, n=6) was 363.9 pg/mL. Moreover, where the note is “rats, oral, vs. basal levels”, the “trend of the concentration of DHT after administration” value is recorded as 8 hours after treatment, the DHT rises returning to the basal levels.
